“Also recorded” adds a separate entry of the source.

One experiment addresses T1, AQP1 (Homo sapiens, UniProt P29972).
T1 construct: Human erythrocytes were obtained from blood-bank units stored up to 5 weeks; from tissue; host or cells: human erythrocytes (blood-bank units; small-scale preparations from freshly drawn whole blood)
T1 sequence (P29972 2-269 limits assumed): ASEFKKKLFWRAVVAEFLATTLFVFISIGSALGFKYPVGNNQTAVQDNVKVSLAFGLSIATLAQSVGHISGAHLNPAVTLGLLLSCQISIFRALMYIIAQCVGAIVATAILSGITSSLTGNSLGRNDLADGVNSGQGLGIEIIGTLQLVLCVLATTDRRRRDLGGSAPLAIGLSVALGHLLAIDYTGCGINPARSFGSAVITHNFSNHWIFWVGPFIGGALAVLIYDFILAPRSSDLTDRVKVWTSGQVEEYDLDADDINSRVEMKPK
The experiment can be described thus: Stopped-flow osmotic water permeability of AQP1 proteoliposomes. It is filed as biochemical. An excerpt:
Preparation AQP1-containing proteoliposomes. Crude Escherichia coli lipid was obtained from Avanti Polar Lipids, Inc., and neutral lipid was removed by acetone/ether wash (Ambudkar & Maloney, 1986, Methods. Enzymol. 125:558-563). The purified E. coli bulk phospholipid is composed of phosphalidylethanolamine (70%), phosphatidylglycerol (15%), and cardiolipin (15%) (Chen & Wilson, […], Proc. Natl. Acad. Sci. USA 83:2652-2656). E. coli bulk phospholipid was employed since it has previously been used for functional reconstitution of several transport proteins including the glucose transporter of RBCs (Maloney & Ambudkar, 1989, Arch. Biochem. Biophys. 269:1-10; Chen et al., 1986, Proc. Natl. Acad. Sci. USA 83:2652-2656).
Highly purified AQP1 protein was incorporated into proteoliposomes by detergent dilution; control liposomes were formed in an identical manner without AQP1 protein.
Purified AQP1 was stored overnight at 0° C. or frozen for several days at -80° C. prior to reconstitution. Reconstitution into proteoliposomes was carried out in a final volume of 1 ml containing 60-90 μg of purified AQP1 protein in chromatography buffer, 9 mg of bath-sonicated E. coli phospholipid, 1.25% (w/v) octyl glucoside, and 50 mM Tris-HCl (pH 7.5). The mixture was briefly blended on a vortex mixer and incubated for 20 minutes on ice. Proteoliposomes (or liposomes prepared without protein) were formed at room temperature by rapidly injecting the mixture into 25 ml of buffer A [50 mM MOPS, pH 7.5, 150 mM N-methyl-D-glucamine (NMDG) chloride also containing 10-15 mM carboxyfluorescein, 1 mM dithiothreitol, and 0.5 mM PMSF]. For the measurement of proton permeability, proteoliposomes and liposomes were loaded with buffer B (5 mM MOPS, pH 7.5, 150 mM KCl, 0.5 mM carboxyfluorescein, 1 mM dithiothreitol, and 0.5 mM PMSF). The suspension was incubated for 20 minutes at room temperature. Proteoliposomes or liposomes were collected by centrifugation for 1 hour at 123000×g in a Beckman Type 42.1 rotor at 4° C. The pellet was resuspended in 8 ml of buffer A or B and then centrifuged for 1 hour at 152000×g in a Beckman Type 50 Ti rotor. Proteoliposomes or liposomes were resuspended in 300 μl of buffer A or B and stored at 4° C. for 16-24 hours. Typically 50% (54±6%, n=5) of the AQP1 protein and 70% of the phospholipid were recovered in proteoliposomes. The lipid to protein ratio was in the range of 120:1 to 219:1. […] Protein and phospholipid were measured as described by Ambudkar & Maloney (J. Biol. Chem., 1986, 261:10079-10086).
Permeability measurements. Membrane permeability measurements (Pf) were measured by exposing AQP1 proteoliposomes or control liposomes to an osmotic gradient by rapid mixing with an equal volume of another solution containing buffer A plus sufficient sucrose to increase osmolality in the mixed solutions to a value 120% of that in the original solution. This was performed with a stopped-flow fluorometer (SF.17MV, Applied Photophysics, Leatherhead, U.K.) with a measured dead time of 0.7 ms. […] Extravesicular carboxyfluorescein fluorescence was completely quenched using anti-fluorescein antibody (Harris et al., 1990, Am. J. Physiol. 259:F366-F371). Within the range of osmolalities used in these experiments, the vesicles acted as perfect osmometers, and relative volume (absolute volume divided by initial volume) was linearly related to relative fluorescence (absolute fluorescence divided by initial fluorescence). […]

A further experiment relates to Red cell water channels. The following applies: cited from earlier work.
Another experiment addresses T2, AQP5 (Rattus norvegicus, UniProt P47864).
T2 construct: the entire open reading frame of the salivary cDNA; expressed in transfected cells; host or cells: Xenopus oocytes injected with cRNA from expression construct pXβG
The experiment can be described thus: Xenopus oocyte swelling assay, AQP5 (salivary) cRNA-injected oocytes (Example 11). The experiment is classed as cell-based. The procedure:
Functional Expression in Oocytes-A 1-kb BamHI fragment containing the 5'untranslated sequence and the entire open reading frame of the salivary cDNA was blunt-end-ligated into the BglII site of the Xenopus expression construct pXβG, which contains the HindIII-Pst insert of pSP64T in pBS II KS (Preston et al., 1992, Science, 256:385-387). Capped cRNA was synthesized in vitro after digestion with Xbal (Preston et al., 1993). Defolliculated stage V-VI Xenopus oocytes were injected with 50 nl of water or up to 5 ng of sample cRNAs and incubated for 3 days at 18° C. in 200 mosM modified Barth's buffer. The oocytes were transferred to 70 mosM modified Barth's buffer at 21° C.; oocyte swelling was monitored by videomicroscopy, and the coefficient of osmotic water permeability (Pf) was determined (Preston et al., 1992, 1993). Uptake of [^14 C]urea or [^14 C]glycerol was measured by incubating oocytes in 200 mosM Barth's buffer for 10-20 min at 21° C. followed by washing and SDS solubilization. No increase in ion conductance was found when control oocytes were compared to RNA-injected oocytes by two electrode voltage clamps (Preston et al., 1992). […]

T2 sequence (P47864 whole entry): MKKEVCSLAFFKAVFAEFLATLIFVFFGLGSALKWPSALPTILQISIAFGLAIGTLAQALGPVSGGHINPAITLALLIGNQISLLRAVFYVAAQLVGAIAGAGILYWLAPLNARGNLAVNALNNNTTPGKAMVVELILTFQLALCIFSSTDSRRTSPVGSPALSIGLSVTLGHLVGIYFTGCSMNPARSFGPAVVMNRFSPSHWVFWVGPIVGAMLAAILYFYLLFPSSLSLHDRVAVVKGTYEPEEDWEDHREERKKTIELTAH

Regarding `[Cl][Hg][Cl]` [HgCl2], the “Pf after mercurial treatment” value on AQP1 (CHIP28 proteoliposomes, 1 mM HgCl2, 3 minutes at 37° C.) stood at 0.007±0.003 cm/s. The “time to complete inhibition of Pf” value on AQP1 (CHIP28 proteoliposomes, 1 mM, 37° C.) was no more than 5 min. In the experiment on Red cell water channels (submillimolar concentrations), the “inhibition of the red cell / membrane water channel” value is on record as “can be inhibited by submillimolar concentrations”. In addition, the “inhibition of Pf of AQP5-expressing oocytes” value on AQP5 (1 mM HgCl2, 5 min) is listed as “comparable reduction; also recorded: reversibly inhibited”.
Regarding `OCCS` [β-mercaptoethanol], the “reversal of inhibition by mercurial reagents” value at AQP1 (5 mM β-mercaptoethanol after pCMBS or HgCl2) is “completely reversed”. The “restoration of the membrane water channel after HgCl2” value in the experiment on Red cell water channels (5 mM β-mercaptoethanol) was “may be restored”. The “restoration of Pf of AQP5-expressing oocytes after HgCl2” value at AQP5 (5 mM β-mercaptoethanol 30 min after 1 mM HgCl2) is “restored”.

The record behind these values is patent US5741671A, “Isolation cloning and expression of transmembrane water channel aquaporin 1(AQP1)” (The Johns Hopkins University, priority 1995, dated 1998).
